Values after ≈ are worked out from the molar mass of the structure shown. Read-outs that look alike come from different tables or passages of the source.

The subject of assay [1] is HCMV recombinant mutant virus whose genome contains the prokaryotic beta-glucuronidase gene. Kind of assay: microbe, parasite or virus in culture. As to conditions: Human betaherpesvirus 5, Fibroblast. In kind it is cell-based, human cytomegalovirus. The essentials:
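Antiviral IC50 estimated from reduced reporter activity across compound amounts: lysates prepared 96 h after infection were tested with p-nitrophenyl- or methylumbelliferyl-glucuronide. Cells were human foreskin fibroblasts, infected alongside inhibitor with HCMV (e.g. RV145) expressing viral promoter-driven beta-glucuronidase.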

Assay [2] deals with VZV strain Ellen. Kind of assay: VZV antiviral (ELISA) assay. In kind it is cell-based. The essentials: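 HFF cells infected with VZV Ellen at multiplicity below 0.1 overnight, then mixed infected/uninfected cells seeded with compound in DMEM/2% FBS and incubated three days at 37°C, 5% CO2.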
Assay [3] has as its system HSV- I. Kind of assay: HSV antiviral (ELISA) assay. The class given is cell-based. Conditions: read-out: IC50 (ug/ml) HSV. The essentials:
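IC50 from fluorescence versus untreated control in a cell ELISA: anti-glycoprotein D antibody, β-galactosidase-conjugated secondary, 4-methyl umbelliferone read at 365/450 nm. Vero cells (2% FBS DMEM) received compound 30 min pre-infection with HSV-1 at MOI 0.006, fixed ~24 h post-infection.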
A general note: ELISA stands for enzyme-linked immunosorbent assay.

The mark [4] stands for this setting: read-out: IC50 ug/ml HCMV, HCMV, human foreskin fibroblasts.
Where [5] appears, read: Human alphaherpesvirus 3, HFF, read-out: IC50 (ug/ml) VZV, VZV strain Ellen, HFF cells, ELISA.
Where [6] appears, read: Human alphaherpesvirus 3, HFF, read-out: % inhibition 10 ug/ml VZV.
The mark [7] stands for this setting: Human alphaherpesvirus 3, HFF, read-out: IC50 (ug/ml) VZV.
The mark [8] stands for this setting: Human alphaherpesvirus 3, VZV strain Ellen, HFF cells, ELISA, read-out: IC50 (ug/ml) VZV.
The mark [9] stands for this setting: Human alphaherpesvirus 3, read-out: % inhibition 10 ug/ml VZV, 10 ug/ml, VZV strain Ellen, HFF cells, ELISA.

With `O=C(Nc1ccc(NC(=S)Nc2cc(Cl)ccc2O)cc1)c1ccccc1F` [Example 1001, N-{4-[3-(5-Chloro-2-hydroxy-phenyl)-thioureido]-phenyl}-2-fluoro-benzamide], the IC50 amounted to 2.6 µg/mL (≈ 6.25 µM) in assay [1] (setting [4]), 3.6 µg/mL (≈ 8.66 µM) in assay [2] (setting [5]) and 4.3 µg/mL (≈ 10.3 µM) in assay [3] (Vero).

With `CCOC(=O)Nc1ccc(NC(=S)Nc2ccc(NC(=O)c3ccccc3F)cc2)cc1Cl` [Example 399, (2-Chloro-4-{3-[4-(2-fluoro-benzoylamino)-phenyl]-thioureido}-phenyl)-carbamic acid ethyl ester], the IC50 in assay [1] (setting [4]) is 1.5 µg/mL (≈ 3.08 µM); in assay [2] (setting [5]) it was more than 10 µg/mL; in assay [3] (Vero), more than 10 µg/mL. In assay [2] (setting [6]), the inhibition at 10 µg/mL was 59%.

With `COc1cccc(C(=O)Nc2ccc(NC(=S)Nc3cc(Cl)c(OC)c(Cl)c3)cc2)c1` [Example 875, N-{4-[3-(3,5-Dichloro-4-methoxy-phenyl)-thioureido]-phenyl}-3-methoxy-benzamide], the IC50 in assay [1] (setting [4]) is 0.4 µg/mL (≈ 0.84 µM); in assay [2] (setting [7]), more than 10 µg/mL; in assay [3] (HSV- I, Vero cells, ELISA) it was 6 µg/mL (≈ 12.6 µM). Further, the inhibition at 10 µg/mL in assay [2] (setting [6]) was determined as 20%.

For `CC(NC(=S)Nc1ccc(C(=O)Nc2ccc(F)cc2)cc1)c1ccc(F)cc1` (stereo not shown) [Example 975, N-(4-Fluoro-phenyl)-4-{3-[1-(4-fluoro-phenyl)-ethyl]-thioureido}-benzamide], the IC50 is more than 10 µg/mL in assay [1] (read-out: IC50 ug/ml HCMV); 0.87 µg/mL (≈ 2.11 µM) in assay [2] (setting [8]); more than 10 µg/mL in assay [3] (HSV- I, Vero cells, ELISA).

Consider `CC(NC(=S)Nc1ccc(NC(=O)c2cc3ccccc3cn2)cc1)c1cc2ccccc2o1` (stereo not shown) [Example 985, Isoquinoline-3-carboxylic acid {4-[3-(1-benzofuran-2-yl-ethyl)-thioureido]-phenyl}-amide], for which the IC50 in assay [1] (setting [4]) was more than 10 µg/mL; in assay [2] (setting [5]) it was 0.035 µg/mL (≈ 0.075 µM); in assay [3] (Vero), more than 10 µg/mL.

On to `COc1cc(OC)c(NC(=S)Nc2ccc(NC(=O)c3ccccc3C(=O)O)cc2)cc1Cl` [Example 184, N-{4-[3-(5-Chloro-2,4-dimethoxy-phenyl)-thioureido]-phenyl}-phthalamic acid], for which the IC50 in assay [1] (setting [4]) is more than 50 µg/mL; in assay [2] (setting [5]) it was more than 10 µg/mL; in assay [3] (Vero), more than 50 µg/mL.

Regarding `COc1cc(OC)c(NC(=S)Nc2ccc(NC(=O)c3ccc(F)c(F)c3F)cc2)cc1Cl` [Example 192, N-{4-[3-(5-Chloro-2,4-dimethoxy-phenyl)-thioureido]-phenyl}-2,3,4-trifluoro-benzamide], the IC50 was more than 10 µg/mL in assay [1] (setting [4]); more than 10 µg/mL in assay [2] (setting [7]); 0.5 µg/mL (≈ 1.01 µM) in assay [3] (HSV- I, Vero cells, ELISA). For the same compound, the inhibition at 10 µg/mL in assay [2] (setting [6]) amounted to 14%.

Consider `COc1c(Cl)cc(NC(=S)Nc2ccc(NC(=O)c3ccccc3F)cc2)cc1Cl` [Example 874, N-{4-[3-(3,5-Dichloro-4-methoxy-phenyl)-thioureido]-phenyl}-2-fluoro-benzamide], for which the IC50 in assay [1] (setting [4]) is 0.2 µg/mL (≈ 0.431 µM); in assay [2] (setting [7]), 3.5 µg/mL (≈ 7.54 µM); in assay [3] (HSV- I, Vero cells, ELISA), 5 µg/mL (≈ 10.8 µM). In addition, the inhibition at 10 µg/mL in assay [2] (setting [6]) came to 75%.

Turning to `O=C(Nc1ccc(NC(=S)NCc2ccccc2)cc1)c1ccccc1F` [Example 536, N-[4-(3-Benzyl-thioureido)-phenyl]-2-fluoro-benzamide], the IC50 in assay [1] (read-out: IC50 ug/ml HCMV) is more than 10 µg/mL; in assay [2] (setting [8]), more than 10 µg/mL; in assay [3] (HSV- I, Vero cells, ELISA), more than 10 µg/mL.

`CS(=O)(=O)c1ccc(NC(=S)Nc2ccc(NC(=O)c3c(F)cccc3F)cc2)cc1Cl` [Example 393, N-{4-[3-(3-Chloro-4-methanesulfonyl-phenyl)-thioureido]-phenyl}-2,6-difluoro-benzamide]: the IC50 was 0.5 µg/mL (≈ 1.01 µM) in assay [1] (setting [4]); more than 10 µg/mL in assay [2] (setting [7]); more than 10 µg/mL in assay [3] (HSV- I, Vero cells, ELISA). Besides, the inhibition at 10 µg/mL in assay [2] (setting [6]) came out at 62%.

With `COc1cc(OC)c(NC(=S)Nc2ccc(NC(=O)c3cccc(OCC(=O)O)c3)cc2)cc1Cl` [Example 222, (3-{4-[3-(5-Chloro-2,4-dimethoxy-phenyl)-thioureido]-phenylcarbamoyl}-phenoxy)-acetic acid], the IC50 in assay [1] (setting [4]) was more than 50 µg/mL; in assay [2] (setting [7]) it was more than 10 µg/mL; in assay [3] (HSV- I, Vero cells, ELISA) it was more than 50 µg/mL. Also, the inhibition at 10 µg/mL in assay [2] (setting [6]) turned out to be 17%.

As to `Cc1ccccc1C(=O)Nc1ccc(NC(=S)Nc2ccc(N(C)C3CCCCC3)c(Cl)c2)cc1` [Example 247, N-(4-{3-[3-Chloro-4-(cyclohexyl-methyl-amino)-phenyl]-thioureido}-phenyl)-2-methyl-benzamide], the IC50 was more than 10 µg/mL in assay [1] (setting [4]); 5 µg/mL (≈ 9.86 µM) in assay [2] (setting [7]); more than 10 µg/mL in assay [3] (HSV- I, Vero cells, ELISA). Besides, in assay [2] (setting [6]), the inhibition at 10 µg/mL came to 74%.

As to `COc1ccc(NC(=S)Nc2ccc(NC(=O)c3ccccc3)cc2)cc1Cl` [Example 817, N-{4-[3-(3-Chloro-4-methoxy-phenyl)-thioureido]-phenyl}-benzamide], the IC50 in assay [1] (setting [4]) was 2 µg/mL (≈ 4.86 µM); in assay [2] (setting [7]) it was 12 µg/mL (≈ 29.1 µM); in assay [3] (HSV- I, Vero cells, ELISA) it was 1 µg/mL (≈ 2.43 µM). Moreover, the inhibition at 10 µg/mL in assay [2] (setting [6]) worked out at 66%.

For the compound `C[C@H](NC(=S)Nc1ccc(NC(=O)c2ccccc2F)cc1)c1ccc(Br)cc1` [Example 1004, (S)-N-(4-{3-[1-(4-Bromo-phenyl)-ethyl]-thioureido}-phenyl)-2-fluoro-benzamide], the IC50 in assay [1] (setting [4]) is 4.2 µg/mL (≈ 8.89 µM); in assay [2] (setting [5]) it was 0.06 µg/mL (≈ 0.127 µM); in assay [3] (Vero), more than 10 µg/mL.

With `O=C(Nc1ccc(NC(=S)Nc2ccc(Cl)c(C(F)(F)F)c2)cc1)c1c(F)cccc1F` [Example 380, N-{4-[3-(4-Chloro-3-trifluoromethyl-phenyl)-thioureido]-phenyl}-2,6-difluoro-benzamide], the IC50 in assay [1] (setting [4]) was more than 10 µg/mL; in assay [2] (setting [7]), more than 10 µg/mL; in assay [3] (HSV- I, Vero cells, ELISA), more than 10 µg/mL. In addition, in assay [2] (setting [6]), the inhibition at 10 µg/mL turned out to be 50%.

On to `O=C(CN1CCCCC1)Nc1ccc(NC(=S)Nc2ccc(NC(=O)c3ccccc3F)cc2)cc1Cl` [Example 364, N-(4-{3-[3-Chloro-4-(2-piperidin-1-yl-acetylamino)-phenyl]-thioureido}-phenyl)-2-fluoro-benzamide], for which the IC50 in assay [1] (setting [4]) is more than 10 µg/mL; in assay [2] (setting [7]), more than 15 µg/mL; in assay [3] (HSV- I, Vero cells, ELISA), more than 10 µg/mL. For the same compound, the inhibition at 10 µg/mL in assay [2] (setting [6]) came to 73%.

Consider `O=C(Nc1ccc(NC(=S)Nc2ccc(F)c(Cl)c2)cc1)c1ccccc1F` [Example 922, N-{4-[3-(3-Chloro-4-fluoro-phenyl)-thioureido]-phenyl}-2-fluoro-benzamide], for which the IC50 in assay [1] (setting [4]) was more than 10 µg/mL; in assay [2] (setting [7]) it was more than 10 µg/mL; in assay [3] (HSV- I, Vero cells, ELISA), 1 µg/mL (≈ 2.39 µM). In addition, the inhibition at 10 µg/mL in assay [2] (setting [6]) worked out at 40%.

Turning to `O=C(Nc1ccc(NC(=S)NCCc2cccc(Cl)c2)cc1)c1ccccc1F` [Example 563, N-(4-{3-[2-(3-Chloro-phenyl)-ethyl]-thioureido}-phenyl)-2-fluoro-benzamide], the results for the IC50 in assay [1] (setting [4]), in assay [2] (setting [5]) and in assay [3] (Vero) were more than 0.5 µg/mL, 9 µg/mL (≈ 21 µM) and more than 10 µg/mL, respectively.

Take `Nc1cccc(NC(=S)Nc2ccc(NC(=O)c3ccccc3F)cc2)c1` [Example 434, N-{4-[3-(3-Amino-phenyl)-thioureido]-phenyl}-2-fluoro-benzamide]: the IC50 is 5 µg/mL (≈ 13.1 µM) in assay [1] (read-out: IC50 ug/ml HCMV); more than 10 µg/mL in assay [2] (setting [8]); 10 µg/mL (≈ 26.3 µM) in assay [3] (HSV- I, Vero cells, ELISA). Moreover, the inhibition at 10 µg/mL in assay [2] (setting [9]) turned out to be 0%.

With `O=C(Nc1ccc(NC(=S)Nc2cccc([N+](=O)[O-])c2)cc1)c1ccccc1F` [Example 959, 2-Fluoro-N-{4-[3-(3-nitro-phenyl)-thioureido]-phenyl}-benzamide], the IC50 in assay [1] (read-out: IC50 ug/ml HCMV) was more than 10 µg/mL; in assay [2] (setting [8]), more than 10 µg/mL; in assay [3] (HSV- I, Vero cells, ELISA) it was 0.7 µg/mL (≈ 1.71 µM). Also, in assay [2] (setting [9]), the inhibition at 10 µg/mL was 33%.

The values above are taken from patent EP1137645B1, “ALPHA-METHYLBENZYL-CONTAINING THIOUREA INHIBITORS OF HERPES VIRUSES CONTAINING A […] GROUP” (Wyeth, priority 1998, dated 2000).
